A short description of data set [1]: Pharmacokinetic study after single intravenous dose. It is filed as in vivo, mice (CD-1). The note with it: female, CD-1, mouse, mice, i.v. 0.75 mg/kg. The method, then: 39 mice (CD-1, 6-weeks old, female) were used in the study. […] The drugs were dissolved in PBS and administered via tail-vein injection to achieve a dose of 0.75 mg/kg of body weight. At specific times post injection (10 min, 30 min, 1 h, 2 h, 4 h and 24 h) blood and brain samples were collected. Blood samples were transferred into tubes containing 5% EDTA, stored on ice, and centrifuged (4° C., 1000 rpm, 15 min). Plasma (upper phase) was transferred to a new tube and stored at −80° C. for further analysis. Brain tissue samples were collected after intracardial perfusion of the mouse. Brain tissue samples were stored at −80° C. for further analysis. Drug quantification in plasma: Briefly, to a 1.5 mL Eppendorf tube containing 50 μl of plasma, 200 μl of ice-cold acetonitrile containing 1,000 ng/ml Progesterone (used as internal standard) was added in order to precipitate the proteins. The sample was vortexed, mixed and centrifuged at 4000×g for 10 min at 4° C. to remove precipitates. 140 μl supernatant was collected and transferred to a 500 μl 96-well polypropylene plate and covered using silicone plate mat. 40 μl of sample was injected in into LC-MS. Using the same sample preparation procedure 11 standard solutions ranging from 50 ng/mL to 100 μg/mL were prepared, analyzed by LC-MS and used as a calibration curve to correlate peak area of the samples to concentration. Drug quantification in brain: the mouse brain was weighted and 1 mL of water per 400 mg of tissue was added. The sample was homogenized using an electric tissue homogenizer. To a 1.5 mL Eppendorf tube containing 50 μl of homogenized sample, 200 μl of ice-cold acetonitrile containing 1000 ng/ml Demeclocycline (used as internal standard) was added in order to precipitate the proteins. The sample was vortexed, mixed and centrifuged at 4000×g for 10 min at 4° C. to remove precipitates. 140 μl supernatant was collected and transferred to a 500 μl 96-well polypropylene plate and covered using silicone plate mat. 40 μl of each sample was injected into LC-MS. Using the same sample preparation procedure 11 standard solutions ranging from 50 ng/mL to 100 μg/mL were prepared, analyzed by LC-MS and used as a calibration curve to correlate peak area of the samples to concentration.
The Hill equation used to fit the data from the voltage-clamp and the optic nerve experiments was as follows: y=y0+(yf−y0)*x^n/(k^n+x^n); where n refers to the Hill coefficient (typically 1±0.1) and k refers to EC50 or IC50. y0 and yf refers to the origin and final ordinate values and were fixed at 1±0.1 or 0±0.1 depending on the experiment. EC50=10^<log EC50>; where <log EC50>=average of log EC50 values from all experiments with the same drug. 95% C.I.=[Upper Limit . . . Lower Limit]; where U.L.=10^(log EC50+s.d.) and L.L.=10^(log EC50−s.d.). The half-life (t1/2) in the stability and pharmacokinetic experiments was calculated by fitting the data to the equation Ct=C0*exp(−k*t) where C0=initial concentration, Ct=concentration at time t, and k=ln 2/t1/2. Student t-test was used to compare results and P<0.05 was considered significant.

Data set [2] in a line: Parallel Artificial Membrane Permeability Assay (PAMPA). It is filed as in vitro ADME. The protocol:
In this experiment, the inventors included highly permeable verapamil and lowly permeable theophylline as controls.
Permeability studies were performed as previously described by Sugano, et al., 2011. A 96-well microplate (acceptor compartment) was filled with PBS containing 5% DMSO. A hydrophobic filter plate (donor compartment) was placed atop the buffer-filled plate and the filter surface was impregnated with 5 μL solution of porcine polar brain lipids (Avanti Lipids) in dodecane (1% w/v). 150 μL of the test compounds dissolved in PBS containing 5% DMSO (compound concentration 0.5 mM) was added to the donor compartment and covered. The only barrier between the two compartments was the artificial BBB membrane containing the porcine polar brain lipids. The whole system was incubated for several hours.

A further data set has as its target T1, Shaker K^+ channel (Drosophila melanogaster, UniProt P08510).
T1 construct: injecting approximately 50 ng of WT Shaker cRNA (kit Ambion) into the oocytes; expressed in transfected cells; host or cells: Xenopus laevis oocytes (cRNA injection)
Briefly: Inhibition of K+ currents, cut-open oocyte voltage clamp. The data set is classed as cell-based, Xenopus oocytes. The method, then:
Using the cut-open oocyte voltage clamp studies to screen compounds to determine their potency towards Kv1 cannels was previously described in Starace and Bezanilla et al. (2004).
For this experiment, Shaker K^+ channel from D. […] was chosen as the archetypical voltage gated K^+ channel that gives name to the family.
Electrophysiology studies are conducted according to the protocol by Stefani and Bezanilla (1998). Briefly, K^+ channel Shaker cRNA is injected into Xenopus oocytes 24 h after their surgical extraction from adult frogs. 1-5 days after injection channel currents are recorded using the cut-open voltage-clamp.
K^+ channel expression in Xenopus oocytes membranes was achieved by injecting approximately 50 ng of WT Shaker cRNA (kit Ambion) into the oocytes 24 h after surgical extraction from adult frogs and collagenase treatment. Injected oocytes were maintained in a standard oocytes solution (100 mM NaCl, 5 mM KCl, 2 mM CaCl2, and 10 mM Hepes at pH 7.5) at 16.5° C. and recordings were performed 1-3 days after injection.
K^+ currents were recorded from oocytes expressing Shaker K^+ channels using the cut-open voltage clamp technique as described by Stefani and Bezanilla. The internal solution was 120 mM KOH, 20 mM HEPES-methyl sulfonate (MES) pH 7.4, 2 mM EGTA. The external solution was 12 mM KOH, 105 mM N-methyl-D-glucamine-MES pH 7.4, 20 mM HEPES, 2 mM CaOH. […] After application, cells were voltage-clamped at least 5 min at 0 mV, then voltage-clamped at −80 mV for 1-2 min. K^+ currents were generated by applying series of 50 ms pulses from −70 mV to +40 mV in increments of 10 mV. […] Analysis of the traces was done using an in-house software. The half-maximal inhibitory concentration (IC50) for each drug was calculated by plotting the relative K^+ current vs. concentration and fitted to the Hill equation using the software Origin.
EC50=10^<log EC50>; where <log EC50>=average of log EC50 values from all experiments with the same drug. 95% C.I.=[Upper Limit . . . Lower Limit]; where U.L.=10^(log EC50+s.d.) and L.L.=10^(log EC50−s.d.). The half-life (t1/2) in the stability and pharmacokinetic experiments was calculated by fitting the data to the equation Ct=C0*exp(−k*t) where C0=initial concentration, Ct=concentration at time t, and k=ln 2/t1/2. Student t-test was used to compare results and P<0.05 was considered significant.

From patent publication US10442767B2 (priority 2012, dated 2019) come the findings set out here.

Read-outs that look alike come from different tables or passages of the source.

T1 sequence (P08510 whole entry): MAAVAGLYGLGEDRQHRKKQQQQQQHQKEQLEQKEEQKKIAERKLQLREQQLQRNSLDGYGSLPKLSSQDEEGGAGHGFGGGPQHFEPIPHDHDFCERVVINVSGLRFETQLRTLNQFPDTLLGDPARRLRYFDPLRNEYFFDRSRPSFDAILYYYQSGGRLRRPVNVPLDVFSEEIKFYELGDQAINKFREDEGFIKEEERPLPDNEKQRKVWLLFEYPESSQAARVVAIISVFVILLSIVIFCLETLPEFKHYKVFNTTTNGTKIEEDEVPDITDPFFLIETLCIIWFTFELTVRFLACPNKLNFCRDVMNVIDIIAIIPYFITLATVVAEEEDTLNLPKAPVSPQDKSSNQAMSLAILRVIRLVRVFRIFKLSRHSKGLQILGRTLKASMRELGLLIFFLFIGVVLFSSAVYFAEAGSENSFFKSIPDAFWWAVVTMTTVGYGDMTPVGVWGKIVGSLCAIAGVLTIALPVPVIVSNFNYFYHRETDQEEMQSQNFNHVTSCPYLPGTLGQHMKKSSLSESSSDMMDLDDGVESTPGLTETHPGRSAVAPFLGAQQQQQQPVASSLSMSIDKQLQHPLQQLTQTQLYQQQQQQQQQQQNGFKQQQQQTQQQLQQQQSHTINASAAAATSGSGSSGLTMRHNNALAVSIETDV

On to `Nc1ccncc1F` [3-F-4-AP, 3-fluoro-4-aminopyridine], for which the Kp in data set [1] (brain and plasma, read-out: Cbrain/Cplasma (maximum in the brain over maximum in plasma)) is 0.214 ± 0.17. Further, the half-life is 85.8 min in data set [1] (brain, read-out: half-life in brain (converted)) and 20.4 min in data set [1] (plasma, read-out: half-life in plasma (converted)). The “times more permeable than 4-AP” value in data set [2] worked out at 6.6 times. The “Pe: permeability coefficient across artificial membrane” value in data set [2] (porcine polar brain lipids, 0.5 mM, 16 h, n=3) turned out to be 1.56 ± 0.06 ×10⁻⁶ cm/s. The “affinity for K^+ channels compared with 4-AP” value on Shaker K^+ channel (cut-open oocyte voltage clamp (Example 2)) is recorded as “very similar affinity to 4-AP”. For the same compound, the IC50 on Shaker K^+ channel (relative K+ current at +20 mV, Xenopus oocytes, Hill fit, read-out: half-maximal inhibitory concentration (IC50)) came to 250 µM.

What is called half-life is how long it takes for the measured level to halve.
